Assay results published in patent publication US20230255934A1, “NURR1 RECEPTOR MODULATORS AND USES THEREOF” (The Regents of the University of California, priority 2020, published 2023).

How the values were obtained:
[1] = target: T1, full-length Nurr1 (NBRE response element) (Mus musculus, UniProt Q06219); assay: Full-length Nurr1 NBRE luciferase reporter assay in MN9D cells; type: cell-based; details: 6 h treatment
T1 construct: a cell line derived from dopaminergic neurons which endogenously expresses full length Nurr1 and its target genes; endogenous in cells; host or cells: MN9D TET-ON cells
T1 sequence (Q06219 whole entry): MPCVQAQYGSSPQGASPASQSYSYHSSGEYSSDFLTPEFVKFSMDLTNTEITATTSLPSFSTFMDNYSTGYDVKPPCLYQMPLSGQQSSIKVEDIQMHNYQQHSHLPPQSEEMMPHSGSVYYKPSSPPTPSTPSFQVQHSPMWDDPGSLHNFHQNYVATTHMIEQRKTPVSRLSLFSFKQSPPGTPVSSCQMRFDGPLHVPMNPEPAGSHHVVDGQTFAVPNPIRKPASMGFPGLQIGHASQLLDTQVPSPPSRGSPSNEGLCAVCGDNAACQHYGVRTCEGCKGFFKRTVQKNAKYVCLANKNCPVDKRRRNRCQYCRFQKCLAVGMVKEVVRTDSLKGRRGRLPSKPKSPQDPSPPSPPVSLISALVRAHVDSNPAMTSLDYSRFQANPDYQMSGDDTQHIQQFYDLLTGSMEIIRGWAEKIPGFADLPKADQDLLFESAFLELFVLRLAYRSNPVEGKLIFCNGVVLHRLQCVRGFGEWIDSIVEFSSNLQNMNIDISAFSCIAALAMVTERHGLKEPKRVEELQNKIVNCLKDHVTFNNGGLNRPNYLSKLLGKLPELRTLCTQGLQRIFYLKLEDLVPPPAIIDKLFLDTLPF
Experimental: Luciferase Reporter Assays. These assays were executed using standard protocols. MN9D TET-ON cells (P5) were grown for 60-72 h (see above) before being seeded at 1-10^5 cell/well in 24-well plate in DMEM/F12+5% TET-ON approved FBS 3 h before transfection. Cells were transfected using Lipofectamine 2000 (Invitrogen) and plasmid DNAs according to manufacturer's instructions. Lipofectamine/DNA complexes were prepared in Opti-Mem medium (Gibco) and incubated with cells overnight. The Nurr1-LBD_Gal4-DBD expressing plasmid was prepared by subcloning the Nurr1 LBD fragment into […] plasmid (Clontech) containing GAL4 DBD. The reporter plasmid pGL4.35 (luc2P/9XGAL4 UAS/Hygro) Vector (Promega) contains nine repeats of GAL4 UAS (Upstream Activator Sequence) and drives transcription of the luciferase reporter gene luc2P in response to binding of Nurr-LBD_Gal4-DBD chimeric protein. The pRL-null (Promega) plasmid expressing renilla luciferase was used as an internal control. […] Alternatively, cells were co-transfected with the reporter plasmid NBREx3-POMC-Luc containing three copies of the NBRE sequence ([NT] ID NO:23)) subcloned into the pXP1-luc plasmid containing the minimal (positions -34 to +63) POMC promoter as described previously^7, and the pRL-null plasmid. […] Transfected cells were treated with increasing concentrations of 5-chloroindole or vehicle only for 6 h, after which time the media was aspirated and luciferase activity was measured. Cells from each well were incubated for 15 min with 220 μL/well of Dual-Glo® Luciferase Reagent (Promega) at room temperature upon rotation on the orbital shaker. […] Resulting solutions were transferred to a white opaque 96-well plate (65 μL/well; 3 wells/sample) and firefly luciferase activity was measured using Veritas Microplate Luminometer (Turner BioSystems, Sunnyvale, Calif.). […] Renilla luciferase activity was measured after 20 min of incubation of the plate inside the luminometer. Experimental values are expressed as the average of firefly/renilla luciferase activity±standard deviation (for three independent biological replicates). […]

[2] = target: Nurr1 ligand binding domain (LBD) (Homo sapiens, UniProt P43354); details: non-canonical ligand binding pocket, Cys566; cited from earlier work
Nurr1 ligand binding domain (LBD), sequence (P43354 360-595 limits assumed): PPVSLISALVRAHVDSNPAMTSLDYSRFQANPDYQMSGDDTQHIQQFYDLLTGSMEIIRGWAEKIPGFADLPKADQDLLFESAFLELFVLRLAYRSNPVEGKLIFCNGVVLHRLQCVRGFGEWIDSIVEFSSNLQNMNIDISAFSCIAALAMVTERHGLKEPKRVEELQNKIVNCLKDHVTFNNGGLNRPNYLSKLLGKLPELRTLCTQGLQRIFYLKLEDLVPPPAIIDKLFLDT

th and vmat2 expression = details: zebrafish; cited from earlier work

Row | Structure (SMILES) | Luciferase production, full-length Nurr1 NBRE reporter [1] | Binding to the Nurr1 LBD (in words) [2] | Expression of th and vmat2 (th and vmat2 expression)
1 | N#Cc1ccc2[nH]ccc2c1 [5-cyanoindole, reference compound] | perform as expected |  | 
2 | CCN(CC)Cc1cc(Nc2ccnc3cc(Cl)ccc23)ccc1O [amodiaquine, reference compound] | perform as expected |  | 
3 | Oc1cc2cc[nH]c2cc1O [DHI, 5,6-dihydroxyindole] |  | forming a reversible covalent adduct with the side chain of Cys566 | stimulates the expression of th and vmat2
